Measured values published in patent US20250213603A1, “PHARMACEUTICAL COMPOSITION FOR TREATING CANCER” (SAGA UNIVERSITY, priority 2021, published 2025).

Experiments:
BV173 = test: Induction of autophagosome formation (Cyto-ID Autophagy Detection Kit); assay type: cell-based; conditions: BV173, 1 mM or 5 mM, 2 hours (FIG. 7)
Procedure: (§1) The induction of autophagosome formation by FA-HP-β-CyD was evaluated as follows.
(§2) Leukemia cell lines (K562 and BV173) were used in this example. The FA-HP-β-CyD synthesized in Example 1 was used.
(§3) The cells were cultured at a cell density of 4×10^5 cells/well on a 6-well plate and were treated for 2 hours with 1 mM or 5 mM HP-β-CyD or FA-HP-β-CyD, and the cells were incubated. This was followed by use of a Cyto-ID (registered trademark) Autophagy Detection Kit (Enzo Life Sciences, USA) and the use of an Axio Imager.M2 fluorescence microscope+an ApoTome.2 (Zeiss) for cell observation.

K562 = test: as above; assay type: cell-based; conditions: K562, 1 mM or 5 mM, 2 hours (FIG. 7)
Procedure: as §1, §2, §3

folic acid-appended hydroxypropyl-β-cyclodextrin [FA-HP-β-CyD]
autophagosome membrane protein LC3B (BV173): increase in a concentration dependent manner | autophagosome membrane protein LC3B (K562): increase in a concentration dependent manner
